The text below walks through data of US7346384B2, “Method of magnetic resonance investigation of a sample using a nuclear spin polarised MR imaging agent” (GE Healthcare AS, priority 2000, dated 2008).

Data set [1] in a line: T1 relaxation time of the reporter compound. Format: physicochemical. The note with it: high T1 agent; 15N storage nucleus; no field or temperature printed for this value.
The nature of data set [2]: water solubility. Format: physicochemical.

Take `[2H]C([2H])(F)C([2H])([2H])[N+](C)(C)C` [molecule (I)]: the T1 value entry in data set [1] was “about 3 minutes”. In addition, the water solubility entry in data set [2] is listed as “good”.
